Data published in patent US8410094B2, “Amide compounds, their pharmaceutical compositions, their preparation method and their uses” (Shanghai Institute of Materia Medica, Chinese Academy of …, priority 2008, dated 2013).
pIC50: −log10 of the molar value. Like-named read-outs stand apart in the source and are kept apart here.

Tests used:
HIV-1 NL(AD8) virus = test: H4DA5 cell model of virus replication (β-galactosidase reporter); assay type: cell-based; conditions: for IC50: read-out: IC50 (nM) H4DA5 cell model; for inhibitory activity EC50 level in H4DA5 cell model: stated in words
Procedure: 2. Results of Activity Assay at Cellular Level • 2.1 H4DA5 Cell Model (The Operation was Performed Under P3 Experimental Conditions) • (1) H4DA5 cells: Hela cells expressing human CD4, CCR5 receptor and reporting gene Ltr-lacZ; • (2) Appropriate amounts of H4DA5 cells were plated in 96-well plate and cultured overnight; • (3) The compound to be tested and HIV-1 NL(AD8) virus were added; • (4) Incubation for 3 days (in cell incubator at 37° C.); • (5) Virus replication was determined using β-galactosidase test kit.

CCR5 = molecular target: T1, CCR5 (Homo sapiens, UniProt P51681); test: Inhibition of CCR5: [35S]GTPγS binding assays (filtration, SPA-WGA) and calcium influx assay, 10 nM RANTES, CHO-CCR5; assay type: biochemical; conditions: for pIC50: inhibition of GTPγS binding induced by 10 nM RANTES, CHO-CCR5; for inhibition against CCR5 (class symbol in IC50 column): class by inhibition at 30 nM or 300 nM
T1 construct: expressed in transfected cells
Procedure: CCR5 belongs to G-Protein-Coupled Receptor (GPCR) family. The developing technology of GPCR-based drugs have been well-developed, among them, the experimental techniques such as ligand-receptor binding assay, GTPγS binding assay and Ca^2+ flux assay have been widely used in drug-screening related to chemokine receptors. The inhibitory activities of the compounds according to the present invention against CCR5 are measured by three methods, i.e., [^35S]GTPγS filter binding assay, SPA-WGA-based [^35S]GTPγS binding assay and calcium influx assay. At the same time, the antiviral activities in cell of the compounds according to the present invention are evaluated by using two kinds HIV-1 subtypes: H4DA5 cell model and PBMC system virus replication model.
A. [^35S]GTPγS Binding Assay
After binding with an agonist, CCR5 experiences a conformation change such that CCR5 interacts with G protein so as to active the G protein. G protein is a tripolymer composed of α-subunit and βγ-subunit. Since the ability of α-subunit binding to GTP depends on the interaction of CCR5 with the agonist, the ability of an agonist for activating CCR5 can be reflected by determining the amount of GTP binding to α-subunit. In a GTPγS binding assay, a ^35S-labeled GTP analogue GTPγS, which can bind with an activated α-subunit without being hydrolyzed, is used to replace GTP in order for eliminating the defect that the amount of GTP binding to G protein can not exactly reflect the activation of CCR5 due to the hydrolysis of GTO by GTPase and for convenience of detection. So, α-subunit binds with GDP when CCR5 is not activated, and after the activation of CCR5, α-subunit binds with GTPγS such that GTPγS irreversible binds to α-subunit. Therefore, the amount of [^35S]-GTPγS binding to α-subunit could reflect the level of CCR5 activated by an agonist. The ability of the agonist for activating CCR5 will decrease when an antagonist is added.
Such experiment has been referred to as GTPγS filtration assay in which [^35S]-GTPγS bound with the free G protein could be separated by membrane filtration.
Alternatively, SPA (Scintillation Proximity Assay) technique can be used to detect the [^35S]-GTPγS bound to G protein, which is called SPA-WGA-based [35S]GTPγS binding assay. The principle of SPA technique is as follows. Sub-atomic particles released during the decay of radioactive atoms, for example β-ray (electron), can excite microspheres at a sufficiently close distance to emit light so as to be detected by a Scintillation Counter. In an aqueous solution, most of the energy of these rays is absorbed by the solvent, and the traveling distance of these rays is limited.
The activation of G protein by CCR5 is determined by the following experiments.
CHO (Chinese hamster ovary cell) permanent cell line expressing CCR5 (CHO-CCR5) (a cell line constructed by Shanghai Targetdrug Ltd.) was lysed with a lysis buffer (5 mM Tris-HCl, pH 7.5, 5 mM EDTA and 5 mM EGTA) and then centrifugated at 15,000×g for 10 min to obtain cell membrane. After the cell membrane was resuspended in a reaction buffer (5 mM Tris-HCl, pH 7.5, 5 mM MgCl2, 1 mM EGTA, 100 mM NaCl), the protein concentration was determined using Bioford Protein Assay Kit manufactured by Bio-Rad Laboratories Inc. Subsequently, GTPγS binding assay was performed in the reaction buffer, wherein the reaction system was 100 μL containing 10 μg membrane protein, 40 μM GDP and 0.5 nM [^35S]-GTPγS (1200 Ci/mmol). After the compound to be tested (the compound was first dissolved in DMSO and then diluted in gradient with the reaction buffer according to the specific situation, wherein the final concentration of DMSO was 1% (v/v) in the whole reaction system) was added and shaken to mix homogeneously, the reaction tube was incubated at 30° C. for 1 hour. After the reaction finished, the tube was placed on ice, and the reaction mixture was diluted with PBS to quench the reaction and filtered under reduced pressure with a GF/C filter membrane. […]

HIV-1 Ba-L virus = test: PBMC system of virus replication model (p24 antigen); assay type: cell-based; conditions: for IC50: read-out: IC50 (nM) PBMC system of virus replication model
Procedure: 2.2 PBMC System of Virus Replication Model (The Operation was Performed Under P3 Experimental Conditions) • (1) PBMC cells were separated from the blood from two people (using Ficoll gradient separation method); • (2) the PBMC cells were stimulated using PHA and incubated for 3 days in a cell incubator at 37° C. at a density of 2×10^6 cells/ml. • (3) PBMC cells were resuspended in a RF-10 medium (RF-10/IL2) containing 100 U/mL IL-2 (30 uL RF-10/IL2 medium containing 4 times of the final concentration of the compound to be tested and 40 uL RF-10/IL2 medium containing HIV-1 Ba-L virus (1400 pfu/well) were added in the plate (200,000 cells/50 uL/well). • (4) After incubated 24 hours, RF-10/IL2 medium containing 1 time of the final concentration of the compound to be test was added in each well. After infected for 4 days, 100 ul fresh RF-10/IL2 medium containing the compound to be tested at the final concentration to replace the original medium. After incubated for 2 days, the supernatant of each well was collected, and the content of p24 was determined. • (5) The content of P24 antigen in the supernatant of each well was measured by Vironostik p24 test kit to detect the virus replication.

[1] = Human immunodeficiency virus 1, 72 h

T1 sequence (P51681 whole entry): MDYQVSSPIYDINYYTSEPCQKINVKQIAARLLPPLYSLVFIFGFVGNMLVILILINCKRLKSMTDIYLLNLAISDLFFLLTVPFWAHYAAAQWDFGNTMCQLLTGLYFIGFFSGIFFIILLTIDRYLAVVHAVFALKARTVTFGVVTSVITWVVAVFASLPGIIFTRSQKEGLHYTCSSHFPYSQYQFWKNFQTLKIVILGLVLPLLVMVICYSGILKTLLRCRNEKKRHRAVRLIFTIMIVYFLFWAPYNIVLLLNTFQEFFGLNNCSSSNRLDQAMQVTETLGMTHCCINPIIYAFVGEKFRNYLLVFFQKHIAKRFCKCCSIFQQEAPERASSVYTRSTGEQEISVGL

Compound	IC50 (HIV-1 NL(AD8) virus; [1]) [nM]	inhibitory activity EC50 level in H4DA5 cell model (HIV-1 NL(AD8) virus)	pIC50 (CCR5)	inhibition against CCR5 (class symbol in IC50 column) (CCR5)	also measured
CC(=O)N1CCC(C(=O)N(CCCN2[C@@H]3CC[C@H]2C[C@H](NC(=O)OCc2ccccc2)C3)c2ccc(C)c(Cl)c2)CC1 [Compound 8, 1-acetyl-N-(3-chloro-4-methylphenyl)-N-(3-(3-exo-benzyloxymethanamido-8-azabicyclo[3.2.1]oct-8-yl)propyl)-4-piperidinylcarboxamide]	220	100 nM level	7.74	–	–
CC(=O)N1CCC(C(=O)N(CCCN2[C@@H]3CC[C@H]2C[C@H](NS(=O)(=O)c2ccc(C)cc2)C3)c2ccc(C)c(Cl)c2)CC1 [Compound 9b, 1-acetyl-N-(3-chloro-4-methylphenyl)-N-(3-(3-exo-p-tolylsulfonamido-8-azabicyclo[3.2.1]oct-8-yl)propyl)-4-piperidinylcarboxamide]	1	nM level	8.22	–	IC50 (HIV-1 Ba-L virus; Human immunodeficiency virus 1, BAL, PBMC): 0.42 nM; inhibitory activity EC50 level in PBMC system of virus replication model (HIV-1 Ba-L virus; stated in words): nM level
Cc1ccc(S(=O)(=O)NC2CC3CCC(C2)N3CCCN(C(=O)OCc2ccccc2)c2ccc(C)c(Cl)c2)cc1 (stereo not drawn) [Compound 15c, 3-chloro-4-methylphenyl(3-(3-exo-(4-toluenesulfonamido)-8-azabicyclo[3.2.1]oct-8-yl)propyl)carbamic acid benzyl ester]	–	–	–	++ (the compound at 300 nM has an inhibition against CCR5 of more thant 50% at 300 nM)	–
Cc1ccc(S(=O)(=O)NC2CC3CCC(C2)N3CCCN(C(=O)Nc2ccccc2)c2ccc(C)c(Cl)c2)cc1 (stereo not shown) [Compound 15d]	–	–	–	++ (the compound at 300 nM has an inhibition against CCR5 of more thant 50% at 300 nM)	–
Cc1ccc(S(=O)(=O)NC2CC3CCC(C2)N3CCCN(c2ccc(C)c(Cl)c2)S(=O)(=O)c2ccc(C)cc2)cc1 (stereo not drawn) [Compound 15e, N-(3-chloro-4-methylphenyl)-4-methyl-N-(3-(3-exo-(4-tolylsulfonamido)-8-azabicyclo[3.2.1]oct-8-yl)propyl)phenylsulfonamide]	–	–	–	++ (the compound at 300 nM has an inhibition against CCR5 of more thant 50% at 300 nM)	–
Maraviroc [reference compound]	–	–	–	–	IC50 (HIV-1 Ba-L virus; PHA-stimulated PBMC, HIV-1 Ba-L, p24): 0.35 nM; IC50 (HIV-1 NL(AD8) virus; Hela cells expressing human CD4, CCR5 and Ltr-lacZ, HIV-1 NL(AD8), 3 days): 1.5 nM
